“Also recorded” adds a separate entry of the source.
Columns and labels:
male rats = test: Penile erection (responding rats, PEI, ED50) in male rats after oral administration; assay type: in vivo, rat; conditions: for PEI (penile erection indexes) for selected molecules: Tables 4-6, dose not given; for PEI (penile erection index) / responding rats % / Calculated ED50: male rats, oral; for PEI (penile erection index) / responding rats %: 10 rats used, 2 hours observation; for Calculated ED50: responding rats as a function of dose
Description: The purpose of the study was to compare the biological activity of compound 1 of the present invention with that of sildenafil. In particular, the respective ED50 value (ED=effective dose), erection episodes and penile erection indexes of said compounds in the treatment of male rats were determined. The penile erection index is an established means of determining the erection promoting properties of a substance (see e.g. Benassi-Benelli, F., Ferari, F., and Pellegrini Quaratotti, B., Arch. Int. Pharmacodyn., 242, 241–247, (1979), and Ang. H. H., Sim, M. K., Pharm. Sci., 3, 17–119, (1997) and references cited therein).
In these experiments, compound 1 of the present invention and sildenafil were administered to male rats orally. The doses for sildenafil were 0.0781, 0.1562, 0.3125 and 0.625 mg/kg body weight, while doses for compound 1 of the present invention were 0.3, 0.6, 1, and 2 mg/kg body weight. Both sildenafil and compound 1 of the present invention were dissolved in distilled water. Control animals were administered with water. During the experiments, the rats were placed in glass cages for observation and had free access to food and water. During 2 hours after administration of the investigated compound, the penile erection and self-sucking were monitored.

[1] = test system: cAMP accumulation in isolated rabbit corpus carvenosum tissue; test: cAMP accumulation in isolated rabbit corpus carvenosum tissue (ELISA); assay type: cell-based, White New Zealand rabbits; conditions: absence of NO donor, FIG. 2; for effect on the accumulation of cAMP levels: up to 20,000 nM
Description: (§1) Method for Analysis of cGMP & cAMP Synthesis and Accumulation in Penile Tissues: White New Zealand rabbits were sacrificed. Excise the penises rapidly after killing the animals, remove epidermal & connective tissue. Dissect out and discard the urethra carefully. Cut the penises longitudinally into 2 equal strips and then laterally to give about 20–40 segments. Pool and incubate the segments of the corpus cavernosum in Dulbecco's minimum essential Medium (MEM) at room temperature for one hour to allow the tissues to recover from preparative handling. Effect of Drug on cGMP and cAMP Formation:
(§2) Place one penile segment in triplicate for each drug dose in 200 μl MEM. Place one penile segment in triplicate for each drug dose with 10 μM SNP (sodium nitroprusside) in 200 μl MEM. (in the case of cGMP). Incubate the tubes at 37° C. for 30 min, stop the reaction by adding 200 μl of 1 mol/l perchloric acid and sonicate for 5 min. Neutralize the aliquots with 0.5 mol/l K3PO4.3H2O to pH 6.2 (240 μl), centrifuge and take the supernatant in aliquots. Keep at 4° C. and assay for the concentrations of cAMP and cGMP in the extract using ELISA (enzyme linked immunosorbant assay). Preparation of Zero sample: Add 200 ul MEM, 200 ul 1M perchloric acid and 240 μl 0.5 mol/L K3PO4.3H2O in one tube.
(§3) The main concentrations were in the range 0–20,000 or 100,000 nM. A stock solution of 1 mM for both drugs were prepared in distilled water. Serial dilution were prepared in MEM giving working drug concentrations of 0, 1000, 4000, 8000, 10000, 20000 and 100000 nM. In the case of cGMP the tests were carried out with and without NO donor (SNP). For this purpose 10 μM SNP was included when necessary.

[2] = test system: cGMP accumulation in isolated rabbit corpus carvenosum tissue; test: cGMP accumulation in isolated rabbit corpus carvenosum tissue (ELISA), with and without NO donor SNP; assay type: cell-based, White New Zealand rabbits; conditions: FIG. 1; for effect on the levels of cGMP: absence of NO donor, tested concentrations up to 100,000 nM
Description: as §1, §2, §3

## CN1CCN(S(=O)(=O)c2ccc3c(c2)OCO3)CC1 [Compound 1]
Male rats
  PEI (penile erection indexes) for selected molecules: 1015
  Calculated ED50: ^(3)Calculated ED50 = 0.7822 mg/kg body weight
Male rats; dose 0.3 mg/kg
  PEI (penile erection index): 22.5
  responding rats %: 15%
Male rats; dose 0.6 mg/kg
  PEI (penile erection index): 260
  responding rats %: 40%
Male rats; dose 1.0 mg/kg
  PEI (penile erection index): 665
  responding rats %: 70%
Male rats; dose 2.0 mg/kg
  PEI (penile erection index): 1020
  responding rats %: 85%
[1]
  effect on the accumulation of cAMP levels: no effect at all
[2]; NO donor added (10 μM SNP)
  concentration giving maximum increase of cGMP levels: about 4000 nM
[2]; NO donor added (10 μM SNP), at 10,000 nM
  effect on cGMP accumulation compared with sildenafil: better effect than sildenafil
[2]
  effect on the levels of cGMP: very little effect; also recorded: weak effect
other
  melting point: 137 to 138 °C

## Cc1ccc(S(=O)(=O)N2CCN(C)CC2)cc1 [R0=—CH3; R1=—CH3 (Table 4)]
Male rats
  PEI (penile erection indexes) for selected molecules: 240

## Cc1ccc(S(=O)(=O)NN2CCN(C)CC2)cc1 [R0=—CH3; R1=—CH3; n=0 (Table 6)]
Male rats
  PEI (penile erection indexes) for selected molecules: 90

## CN1CCN(S(=O)(=O)c2ccccc2)CC1 [R0=—CH3; R1=—H (Table 4)]
Male rats
  PEI (penile erection indexes) for selected molecules: 420

## CN1CCN(NS(=O)(=O)c2ccccc2)CC1 [R0=—CH3; R1=—H; n=0 (Table 6)]
Male rats
  PEI (penile erection indexes) for selected molecules: 80

## CCCc1nn(C)c2c(=O)[nH]c(-c3cc(S(=O)(=O)N4CCN(C)CC4)ccc3OCC)nc12 [Sildenafil, sildenafil, reference compound]
Male rats; dose 0.0781 mg/kg
  PEI (penile erection index): 90
  responding rats %: 30%
Male rats; dose 0.1562 mg/kg
  PEI (penile erection index): 150
  responding rats %: 30%
Male rats; dose 0.3125 mg/kg
  PEI (penile erection index): 350
  responding rats %: 50%
Male rats; dose 0.625 mg/kg
  PEI (penile erection index): 980
  responding rats %: 70%
Male rats
  Calculated ED50: ^(2)Calculated ED50 = 0.2473 mg/kg body weight
[1]
  concentration giving maximum increase in cAMP levels: 8000–10,000 nM
  effect on the accumulation of cAMP levels: remarkable increase
[2]; NO donor added (10 μM SNP)
  concentration giving maximum increase of cGMP levels: about 10,000 nM
[2]
  effect on the levels of cGMP: very little effect; also recorded: almost flat effect

Reference: US7084144B2, “Sulfonyl group containing compounds and their use for the treatment of erectile dysfunction” (The Jordanian Pharmaceutical MFG & Medical Equipment CO LTD, priority 2000, dated 2006)
